In patent publication US20070032529A1, “Pyrazole compounds and their use as antidiabetes agents” (Japan Tobacco Inc., priority 2005, published 2007):
pIC50: −log10 of the molar value.

Target: T1, recombinant human liver glycogen phosphorylase (Homo sapiens, UniProt P06737)
T1 construct: made in house; host or cells: Sf9 insect cells (crude homogenate, diluted, used as the enzyme solution)
T1 sequence (P06737 1-847): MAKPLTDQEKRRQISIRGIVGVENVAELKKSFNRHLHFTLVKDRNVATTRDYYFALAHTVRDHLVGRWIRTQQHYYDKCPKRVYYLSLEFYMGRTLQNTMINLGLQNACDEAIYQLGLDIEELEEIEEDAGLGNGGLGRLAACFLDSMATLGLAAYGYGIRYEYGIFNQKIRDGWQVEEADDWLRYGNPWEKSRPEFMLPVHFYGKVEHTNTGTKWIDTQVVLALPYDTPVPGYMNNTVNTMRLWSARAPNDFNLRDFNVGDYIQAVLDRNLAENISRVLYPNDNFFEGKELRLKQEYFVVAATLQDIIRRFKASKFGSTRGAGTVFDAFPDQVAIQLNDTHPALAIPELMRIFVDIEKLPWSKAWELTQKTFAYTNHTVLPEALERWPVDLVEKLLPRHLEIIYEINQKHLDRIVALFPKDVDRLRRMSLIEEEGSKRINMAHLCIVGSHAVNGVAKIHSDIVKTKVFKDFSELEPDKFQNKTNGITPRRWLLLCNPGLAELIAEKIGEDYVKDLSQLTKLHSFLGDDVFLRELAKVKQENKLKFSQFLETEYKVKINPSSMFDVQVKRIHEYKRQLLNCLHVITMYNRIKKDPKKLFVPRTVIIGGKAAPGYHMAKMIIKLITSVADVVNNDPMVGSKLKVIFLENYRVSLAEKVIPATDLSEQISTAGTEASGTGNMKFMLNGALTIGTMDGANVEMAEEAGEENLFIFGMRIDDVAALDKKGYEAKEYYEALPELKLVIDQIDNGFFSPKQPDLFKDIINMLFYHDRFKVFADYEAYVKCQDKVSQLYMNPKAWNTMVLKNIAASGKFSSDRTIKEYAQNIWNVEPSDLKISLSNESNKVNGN
Test: Measuring liver glycogen phosphorylase activity (forward reaction system, NADPH absorbance at 340 nm)
Assay type: biochemical
Settings: compound concentration 100 nmol (in parentheses); read-out: inhibition rate (%) at a certain concentration
Method: [Pharmacological Test] 1. Exemplary Test (1) Method for Measuring Liver Glycogen Phosphorylase Activity
The measurement of glycogen phosphorylase activity was carried out by a method using the forward reaction system.
The measurement of glycogen phosphorylase activity using the forward reaction system was carried out as follows. Glucose-1-phosphate prepared from glycogen by glycogen phosphorylase was converted into glucono-δ-lactone 6-phosphate through transphosphorylation and dehydrogenation using phosphoglucomutase and glucose-6-phosphate dehydrogenase (G6PDH). NADPH generated from NADP during the dehydrogenation by G6PDH was detected.
A homogenate of the Sf9 cells which expressed exogenously recombinant human liver glycogen phosphorylase was diluted with 100 mmol/LBES buffer solution (pH 6.8, containing 2 mmol/L EDTA) and the dilution was used as the enzyme solution of human liver glycogen phosphorylase. As the substrate, a phosphate buffer (containing 16 mmol/L KH2PO4, 24 mmol/L Na2HPO4) was used. A mixture of 8 U/mL phosphoglucomutase and 60 U/mL G6PDH was prepared in BES buffer solution. Buffer solution (containing 1.4 mmol/L NADP, 30 mmol/L MgCl2, 8 μmol/L glucose-1,6-diphosphate, 8 mg/mL glycogen, 40 mmol/LBES, 0.8 mmol/L EDTA) for reaction and a glucose solution (containing 75 mmol/L glucose, 100 mmol/LBES, 2 mmol/L EDTA) were prepared individually. The test compound was dissolved in 1% DMSO solution.
The enzymatic reaction was begun by adding 20 μL of the recombinant human liver glycogen phosphorylase solution and 20 μL of the mixture of phosphoglucomutase and G6PDH to the mixture of 20 μL of the glucose solution, 20 μL of the substrate, 100 μL of the buffer solution for reaction and 20 μL of the test compound solution. As control, 1% DMSO solution was added instead of the test compound. The mixture without the substrate was used as blank. The absorbance at 340 nm was measured immediately after the reaction started. The absorbance at 340 nm was measured again after reacting at room temperature for 75 minutes. The enzymatic activity is a value obtained by subtracting the blank variation in absorbance over 75 minutes from the variation in absorbance over 75 minutes.
The inhibition rate (%) of the test compound was calculated by the expression “(1-enzymatic activity of test compound/enzymatic activity of control)×100.”
A linear equation was determined from the two concentration points with the 50% inhibition rate therebetween, and the IC50 value was calculated from the concentration at the intersection of the line with the 50% inhibition rate.
“IC50” in the tables indicates the above-described enzyme inhibitory activity with respect to liver glycogen phosphorylase, and the activity to inhibit liver glycogen phosphorylase was represented as ++ when the IC50 value (nmol/L) was less than 100 nmol/L, as + when the IC50 value was between 100 nmol/L and 300 nmol/L. When IC50 is 300 nmol/L or more, an inhibition rate (%) at a certain concentration of the compound (I) of the present invention is shown in Tables. For example, when the inhibition rate is 20% at a concentration of 300 nmol, the rate is described as 20% (300).

Compound	inhibition at 0.1 µM [%]
C[C@H](NC(=O)c1cc(NC(=O)c2cc(F)c(F)cc2Cl)[nH]n1)c1ccccc1 [Example 2-21]	5.7
O=C(NCc1ccccc1)c1cc(NC(=O)c2ccncc2Cl)[nH]n1 [Example 4-44]	5.7
O=C(Nc1cccc2cnccc12)c1cc(NC(=O)c2cc(F)c(F)cc2Cl)[nH]n1 [Example 1-147]	9.6
O=C(NCCc1ccccn1)c1cc(NC(=O)c2cc(F)c(F)cc2Cl)[nH]n1 [Example 1-139]	22.9
COCCN(C(=O)c1cc(NC(=O)c2cc(F)c(F)cc2Cl)[nH]n1)c1ccc(C(=O)OC)cc1 [Example 4-47]	1.2
O=C(N[C@H]1c2ccccc2C[C@H]1O)c1cc(NC(=O)c2cc(F)c(F)cc2Cl)[nH]n1 [Example 2-31]	5.5

Same assay, conditions: compound concentration 300 nmol (in parentheses); read-out: inhibition rate (%) at a certain concentration

Compound	inhibition at 0.3 µM [%]
Cc1ccc(F)c(C(=O)Nc2cc(C(=O)NCc3ccccc3)n[nH]2)c1 [Example 4-19]	3.3
Cc1ccc(C(=O)Nc2cc(C(=O)NCc3ccccc3)n[nH]2)c(Cl)n1 [Example 4-43]	3.8
O=C(Nc1cc(C(=O)N(CCCCO)Cc2ccccc2)n[nH]1)c1cc(F)c(F)cc1Cl [Example 1-86]	17
O=C(NCc1ccccc1)c1cc(NC(=O)c2cc(Cl)ccc2F)[nH]n1 [Example 4-20]	3.3

Same assay, conditions: compound concentration 1000 nmol (in parentheses); read-out: inhibition rate (%) at a certain concentration

Compound	inhibition at 1 µM [%]
O=C(N[C@H](CO)c1ccccc1)c1cc(NC(=O)c2cc(F)c(F)cc2Cl)[nH]n1 [Example 3-23]	26.1
COC(=O)[C@@H](NC(=O)c1cc(NC(=O)c2cc(F)c(F)cc2Cl)[nH]n1)c1ccccc1 [Example 3-13]	25.5
COC(=O)[C@H](NC(=O)c1cc(NC(=O)c2cc(F)c(F)cc2Cl)[nH]n1)c1ccccc1 [Example 3-14]	41.7
CN(CCc1ccccc1)C(=O)c1cc(NC(=O)c2cc(F)c(F)cc2Cl)[nH]n1 [Example 3-10]	23.2

Same assay, conditions: enzyme inhibitory activity with respect to liver glycogen phosphorylase; class symbols

Compound	pIC50
O=C(NCc1csc(N2CCOCC2)n1)c1cc(NC(=O)c2cc(F)c(F)cc2Cl)[nH]n1 [Example 1-54]	> 7.00
CCN(CCOC)C(=O)c1cc(NC(=O)c2cc(F)c(F)cc2Cl)[nH]n1 [Example 1-7]	6.52 to 7.00
O=C(NCc1cc(Cl)c(Cl)s1)c1cc(NC(=O)c2cc(F)c(F)cc2Cl)[nH]n1 [Example 1-161]	> 7.00
CC(C)N(C(=O)c1cc(NC(=O)c2cc(F)c(F)cc2Cl)[nH]n1)c1ccccc1 [Example 4-3]	6.52 to 7.00
O=C(NCc1ccc(-c2ccccc2)nc1)c1cc(NC(=O)c2cc(F)c(F)cc2Cl)[nH]n1 [Example 2-32]	> 7.00
CN(C)CCNC(=O)c1ccc(CNC(=O)c2cc(NC(=O)c3cc(F)c(F)cc3Cl)[nH]n2)cc1 [Example 1-33]	> 7.00
Cc1nc(CNC(=O)c2cc(NC(=O)c3cc(F)c(F)cc3Cl)[nH]n2)c(C)o1 [Example 1-162]	> 7.00
CC(C)(C)c1cnc(CNC(=O)c2cc(NC(=O)c3cc(F)c(F)cc3Cl)[nH]n2)s1 [Example 1-60]	> 7.00
O=C(Nc1cc(C(=O)N(CC(=O)N2CCCCC2)c2ccccc2)n[nH]1)c1cc(F)c(F)cc1Cl [Example 4-11]	> 7.00
O=C(NCc1ccccc1F)c1cc(NC(=O)c2cc(F)c(F)cc2Cl)[nH]n1 [Example 1-8]	> 7.00
O=C(NCc1cnccn1)c1cc(NC(=O)c2cc(F)c(F)cc2Cl)[nH]n1 [Example 1-152]	> 7.00
O=C(NCc1nccs1)c1cc(NC(=O)c2cc(F)c(F)cc2Cl)[nH]n1 [Example 1-51]	> 7.00
CCCN(C(=O)c1cc(NC(=O)c2cc(F)c(F)cc2Cl)[nH]n1)c1ccccc1 [Example 3-16]	> 7.00
CCN(CC)C(=O)c1cc(NC(=O)c2cc(F)c(F)cc2Cl)[nH]n1 [Example 1-4]	> 7.00
O=C(Nc1cc(C(=O)N2CCCc3ccccc32)n[nH]1)c1cc(F)c(F)cc1Cl [Example 3-15]	6.52 to 7.00
COC(=O)CCN(C(=O)c1cc(NC(=O)c2cc(F)c(F)cc2Cl)[nH]n1)c1ccccc1 [Example 4-25]	> 7.00
O=C(NCc1ccc(Oc2ccccc2)nc1)c1cc(NC(=O)c2cc(F)c(F)cc2Cl)[nH]n1 [Example 2-22]	> 7.00
O=C(O)CNC(=O)c1ccc(CNC(=O)c2cc(NC(=O)c3cc(F)c(F)cc3Cl)[nH]n2)cc1 [Example 5-6]	> 7.00
CCN(CC)C(=O)c1cccc(CNC(=O)c2cc(NC(=O)c3cc(F)c(F)cc3Cl)[nH]n2)c1 [Example 1-119]	6.52 to 7.00
CCc1nc(C)oc1CNC(=O)c1cc(NC(=O)c2cc(F)c(F)cc2Cl)[nH]n1 [Example 1-157]	> 7.00
O=C(O)CCN(C(=O)c1cc(NC(=O)c2cc(F)c(F)cc2Cl)[nH]n1)c1ccccc1 [Example 4-27]	6.52 to 7.00
O=C(NCC1CCCCC1)c1cc(NC(=O)c2cc(F)c(F)cc2Cl)[nH]n1 [Example 1-76]	> 7.00
COc1ccc(CNC(=O)c2cc(NC(=O)c3cc(F)c(F)cc3Cl)[nH]n2)cc1OC [Example 1-17]	> 7.00
COc1cncc(OC)c1CNC(=O)c1cc(NC(=O)c2cc(F)c(F)cc2Cl)[nH]n1 [Example 3-51]	> 7.00
CC(=O)Nc1cccc(CNC(=O)c2cc(NC(=O)c3cc(F)c(F)cc3Cl)[nH]n2)c1 [Example 2-17]	> 7.00

Same assay, conditions: figure in brackets (100); read-out: IC50: % value given with (100)

Compound	inhibition at 0.1 µM [%]
CN(C(=O)c1cc(NC(=O)c2cc(F)c(F)cc2Cl)[nH]n1)c1ccc(C(=N)NO)cc1 [Example 6-11]	2.1
CS(=O)(=O)Nc1cc(F)c(F)cc1C(=O)Nc1cc(C(=O)NCc2cccnc2)n[nH]1 [Example 7-12]	8

Same assay, conditions: figure in brackets (300); read-out: IC50 column: % value printed with (300)

Compound	inhibition at 0.3 µM [%]
CN(C(=O)c1cc(NC(=O)c2cc(F)c(F)cc2Cl)[nH]n1)c1ccc(-c2nnc[nH]2)cc1 [Example 6-8]	11.7
CN(C)C(=O)c1ccc(N(C)C(=O)c2cc(NC(=O)c3cc(F)c(Cl)cc3Cl)[nH]n2)cc1 [Example 6-4]	46.8
O=C(NCc1cccnc1)c1cc(NC(=O)c2cc(F)c(Cl)nc2Cl)[nH]n1 [Example 7-5]	8.5

Same assay, conditions: human liver glycogen phosphorylase; class symbol

Compound	pIC50
CC(=N)Nc1cccc(CNC(=O)c2cc(NC(=O)c3cc(F)c(F)cc3Cl)[nH]n2)c1 [Example 6-31]	> 7.00
CC(=O)Nc1ccccc1CNC(=O)c1cc(NC(=O)c2cc(F)c(F)cc2Cl)[nH]n1 [Example 6-20]	> 7.00
O=C(Nc1cc(C(=O)N2C=Nc3ccccc3C2)n[nH]1)c1cc(F)c(F)cc1Cl [Example 6-44]	> 7.00
CCN(C=Nc1cccc(CNC(=O)c2cc(NC(=O)c3cc(F)c(F)cc3Cl)[nH]n2)c1)CC [Example 6-28]	> 7.00
N/C(=N\O)c1cc(CNC(=O)c2cc(NC(=O)c3cc(F)c(F)cc3Cl)[nH]n2)ccn1 [Example 6-49]	> 7.00
